The text below walks through data of patent EP4745137A1 (Gluetacs Therapeutics (Shanghai) Co., Ltd., priority 2023, dated 2025).

Some results are limits rather than exact numbers.

The target in one experiment is T1, CK1α (Homo sapiens, UniProt P48729+Q96SW2).
T1 construct: endogenous in cells; host or cells: hPBMCs (Milecell Biotechnologies)
The experiment can be described thus: Western-blot assay of substrate protein degradation in hPBMCs, CK1α. Particulars: 24 hours of compound treatment, compounds tested at 50 nM and 500 nM (concentration of the table not stated). Type of experiment: cell-based.

For a further experiment, the target named is T2, GSPT1 (Homo sapiens, UniProt P15170+Q96SW2).
T2 construct: endogenous in cells; host or cells: hPBMCs (Milecell Biotechnologies)
T2 sequence (P15170 whole entry): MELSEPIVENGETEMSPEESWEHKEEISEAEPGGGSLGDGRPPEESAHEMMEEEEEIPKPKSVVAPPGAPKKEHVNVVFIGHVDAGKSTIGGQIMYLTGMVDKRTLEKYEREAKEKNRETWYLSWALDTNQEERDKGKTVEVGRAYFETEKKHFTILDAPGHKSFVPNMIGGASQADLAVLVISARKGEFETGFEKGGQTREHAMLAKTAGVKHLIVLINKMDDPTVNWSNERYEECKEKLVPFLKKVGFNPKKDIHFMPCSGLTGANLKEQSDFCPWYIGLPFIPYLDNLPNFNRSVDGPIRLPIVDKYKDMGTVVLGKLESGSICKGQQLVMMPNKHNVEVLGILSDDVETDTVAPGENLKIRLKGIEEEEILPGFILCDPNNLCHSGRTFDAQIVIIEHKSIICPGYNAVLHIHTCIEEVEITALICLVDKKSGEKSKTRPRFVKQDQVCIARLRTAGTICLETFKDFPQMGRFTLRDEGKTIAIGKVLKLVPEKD
T2 sequence (Q96SW2 whole entry): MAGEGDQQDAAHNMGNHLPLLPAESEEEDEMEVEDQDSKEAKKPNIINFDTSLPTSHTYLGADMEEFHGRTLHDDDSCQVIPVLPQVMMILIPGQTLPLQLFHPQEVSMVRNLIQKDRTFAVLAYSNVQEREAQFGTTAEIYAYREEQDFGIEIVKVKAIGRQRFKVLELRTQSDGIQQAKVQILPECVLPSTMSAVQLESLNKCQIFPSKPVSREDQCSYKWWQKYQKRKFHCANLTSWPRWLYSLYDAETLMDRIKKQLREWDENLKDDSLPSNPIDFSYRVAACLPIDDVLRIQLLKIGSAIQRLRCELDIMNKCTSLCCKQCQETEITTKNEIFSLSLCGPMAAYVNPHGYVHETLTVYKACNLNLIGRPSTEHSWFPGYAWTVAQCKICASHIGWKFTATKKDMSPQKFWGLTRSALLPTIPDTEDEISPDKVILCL
T2 sequence (Q16531 whole entry partner): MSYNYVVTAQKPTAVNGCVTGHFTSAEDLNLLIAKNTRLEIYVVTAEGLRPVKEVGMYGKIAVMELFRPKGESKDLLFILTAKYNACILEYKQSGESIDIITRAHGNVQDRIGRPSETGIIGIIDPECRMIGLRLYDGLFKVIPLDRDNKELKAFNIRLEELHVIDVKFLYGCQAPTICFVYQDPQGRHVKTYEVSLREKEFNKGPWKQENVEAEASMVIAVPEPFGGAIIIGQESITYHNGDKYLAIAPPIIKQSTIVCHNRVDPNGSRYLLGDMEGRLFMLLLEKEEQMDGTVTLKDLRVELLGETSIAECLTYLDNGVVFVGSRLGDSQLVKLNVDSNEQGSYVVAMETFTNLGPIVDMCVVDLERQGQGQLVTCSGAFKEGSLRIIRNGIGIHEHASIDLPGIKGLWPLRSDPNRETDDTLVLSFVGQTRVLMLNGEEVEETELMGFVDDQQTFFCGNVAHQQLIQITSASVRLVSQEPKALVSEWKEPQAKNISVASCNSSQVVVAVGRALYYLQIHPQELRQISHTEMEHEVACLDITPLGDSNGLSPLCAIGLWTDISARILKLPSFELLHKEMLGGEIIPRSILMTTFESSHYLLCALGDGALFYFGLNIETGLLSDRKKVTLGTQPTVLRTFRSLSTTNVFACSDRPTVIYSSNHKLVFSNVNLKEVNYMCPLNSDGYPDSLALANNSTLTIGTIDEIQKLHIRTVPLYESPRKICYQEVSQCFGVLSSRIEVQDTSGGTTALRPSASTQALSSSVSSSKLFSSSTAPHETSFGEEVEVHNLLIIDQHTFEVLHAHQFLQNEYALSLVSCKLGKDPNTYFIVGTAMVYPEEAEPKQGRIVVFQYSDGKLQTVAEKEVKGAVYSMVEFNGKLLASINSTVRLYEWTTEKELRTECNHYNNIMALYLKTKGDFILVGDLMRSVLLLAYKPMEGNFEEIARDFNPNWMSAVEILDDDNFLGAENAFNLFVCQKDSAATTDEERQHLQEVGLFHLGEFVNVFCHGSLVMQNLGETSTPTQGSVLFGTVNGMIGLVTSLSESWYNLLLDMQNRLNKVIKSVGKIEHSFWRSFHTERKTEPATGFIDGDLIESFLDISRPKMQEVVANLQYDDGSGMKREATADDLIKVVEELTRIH
The experiment is described as follows: Western-blot assay of substrate protein degradation in hPBMCs, GSPT1. Type of experiment: cell-based. Particulars: 24 hours of compound treatment, compounds tested at 50 nM and 500 nM (concentration of the table not stated).

The test system of another experiment is NCI-H1975. The experiment is described as follows: Tumor cell proliferation inhibition (CellTiter-Meiluncell Luminescent Cell Viability Assay), NCI-H1975. Particulars: Homo sapiens, NCI-H1975, 96 h, read-out: inhibitory activity (IC50, nM) against tumor cells proliferation, H1975.
The subject of the next experiment is CAL-62. The experiment can be described thus: Tumor cell proliferation inhibition (CellTiter-Meiluncell Luminescent Cell Viability Assay), CAL-62. The note with it: Homo sapiens, CAL-62, 96 h, read-out: inhibitory activity (IC50, nM) against tumor cells proliferation, CAL-62.
Another experiment has as its target T3, IKZF2 (Homo sapiens, UniProt Q96SW2+Q9UKS7).
T3 construct: endogenous in cells; host or cells: hPBMCs (Milecell Biotechnologies)
The experiment is described as follows: Western-blot assay of substrate protein degradation in hPBMCs, IKZF2. The experiment is classed as cell-based. The note with it: 24 hours of compound treatment, compounds tested at 50 nM and 500 nM (concentration of the table not stated).

In experiment [1] the target is T4, human Cereblon WT GST-tagged protein (Homo sapiens, UniProt Q96SW2).
T4 construct: purchased CISBIO 64BDCRBNPEH
T4 sequence (Q96SW2 whole entry): as the sequence (Q96SW2 whole entry) above
The experiment can be described thus: CRBN-binding affinity by HTRF (CEREBLON BINDING kit). Particulars: HTRF inhibitory activity, CEREBLON BINDING kit; read-out: HTRF IC50. (In general: In TR-FRET formats the signal depends on donor and acceptor labels being close together.)

A further experiment deals with MM.1R. The experiment can be described thus: Tumor cell proliferation inhibition (CellTiter-Meiluncell Luminescent Cell Viability Assay), MM.1R. The note with it: Homo sapiens, 96 h, read-out: inhibitory activity (IC50, nM) against tumor cells proliferation, MM.1R.
In another experiment the target is T5, WEE1 (Homo sapiens, UniProt P30291+Q96SW2).
T5 construct: endogenous in cells; host or cells: hPBMCs (Milecell Biotechnologies)
T5 sequence (P30291 whole entry): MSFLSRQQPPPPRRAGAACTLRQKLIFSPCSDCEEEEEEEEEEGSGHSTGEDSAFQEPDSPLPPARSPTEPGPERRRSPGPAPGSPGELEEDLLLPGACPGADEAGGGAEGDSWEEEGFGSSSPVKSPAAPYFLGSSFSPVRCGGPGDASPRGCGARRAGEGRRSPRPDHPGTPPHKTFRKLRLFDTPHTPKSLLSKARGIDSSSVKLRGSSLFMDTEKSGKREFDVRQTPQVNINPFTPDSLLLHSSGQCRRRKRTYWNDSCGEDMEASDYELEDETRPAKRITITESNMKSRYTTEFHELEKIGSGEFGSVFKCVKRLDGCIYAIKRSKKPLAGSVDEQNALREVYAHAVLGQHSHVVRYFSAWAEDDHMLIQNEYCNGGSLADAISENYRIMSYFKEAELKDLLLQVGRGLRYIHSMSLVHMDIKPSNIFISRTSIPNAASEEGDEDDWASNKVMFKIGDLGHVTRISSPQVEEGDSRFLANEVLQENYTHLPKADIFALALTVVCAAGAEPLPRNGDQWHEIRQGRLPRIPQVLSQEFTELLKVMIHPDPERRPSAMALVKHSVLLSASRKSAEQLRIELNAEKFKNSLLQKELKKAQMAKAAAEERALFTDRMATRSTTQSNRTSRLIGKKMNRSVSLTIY
T5 sequence (Q96SW2 whole entry): as the sequence (Q96SW2 whole entry) above
T5 sequence (Q16531 whole entry partner): as the sequence (Q16531 whole entry partner) above
The experiment is described as follows: Western-blot assay of substrate protein degradation in hPBMCs, WEE1. Type of experiment: cell-based. The note with it: 24 hours of compound treatment, compounds tested at 50 nM and 500 nM (concentration of the table not stated).

The subject of a further experiment is Jurkat. The experiment is described as follows: Tumor cell proliferation inhibition (CellTiter-Meiluncell Luminescent Cell Viability Assay), Jurkat. The note with it: Homo sapiens, 96 h, read-out: inhibitory activity (IC50, nM) against tumor cells proliferation, Jurkat.
The subject of experiment [2] is Human acute T lymphocytic leukemia cells (Molt-4). The experiment is described as follows: Tumor cell proliferation inhibition (CellTiter-Meiluncell Luminescent Cell Viability Assay), Molt-4. The note with it: MOLT-4, 96 h, read-out: inhibitory activity (IC50, nM) against tumor cells proliferation, Molt 4.
For experiment [3], the system named is Human breast cancer cells (MDA-MB-231). The experiment is described as follows: Tumor cell proliferation inhibition (CellTiter-Meiluncell Luminescent Cell Viability Assay), MDA-MB-231. Particulars: MDA-MB-231, 96 h, read-out: inhibitory activity (IC50, nM) against tumor cells proliferation, MDA-MB-231.
Experimental: The tumor cells used herein were cultured in a cell culture medium listed in table 2 at 37°C in an incubator with 5% CO2. Prior to experimentation, all cell lines used were correctly identified by STR profiling, and tested negative for mycoplasma contamination using a mycoplasma detection kit through routine screenings.
On the following day, the test compounds of the present disclosure were subjected to serial dilution. […] Subsequently, 0.5 µL of the test compound dilution was transferred into the 96-well plate containing the cells, with each well containing 100 µL of cell culture medium. […] Into the 96-well plate, the diluted test compounds and corresponding detection reagents were added, resulting in final test compound concentrations of 500 nM and 10 nM, respectively. The experimental procedure is described below using the diluted 2 µM test compound as an example.
After the cells were treated with the compounds of the present disclosure for a specified period (the treatment durations were shown in Table 3), the cell viability assay reagent was added to the culture medium according to the kit's instructions to determine cell viability. […] All controls were treated using the same procedure as the compounds of the present disclosure. The growth inhibition curves for the compounds of the present disclosure were plotted using Prism GraphPad software, and the IC50 values were calculated therefrom.
The target in the next experiment is T6, IKZF1 (Homo sapiens, UniProt Q13422+Q96SW2).
T6 construct: endogenous in cells; host or cells: hPBMCs (Milecell Biotechnologies)
The experiment can be described thus: Western-blot assay of substrate protein degradation in hPBMCs, IKZF1. Type of experiment: cell-based. Particulars: 24 hours of compound treatment, compounds tested at 50 nM and 500 nM (concentration of the table not stated).

Another experiment has as its target T7, IKZF3 (Homo sapiens, UniProt Q96SW2+Q9UKT9).
T7 construct: endogenous in cells; host or cells: hPBMCs (Milecell Biotechnologies)
The experiment is described as follows: Western-blot assay of substrate protein degradation in hPBMCs, IKZF3. Type of experiment: cell-based. The note with it: 24 hours of compound treatment, compounds tested at 50 nM and 500 nM (concentration of the table not stated).

T1 sequence (P48729 whole entry): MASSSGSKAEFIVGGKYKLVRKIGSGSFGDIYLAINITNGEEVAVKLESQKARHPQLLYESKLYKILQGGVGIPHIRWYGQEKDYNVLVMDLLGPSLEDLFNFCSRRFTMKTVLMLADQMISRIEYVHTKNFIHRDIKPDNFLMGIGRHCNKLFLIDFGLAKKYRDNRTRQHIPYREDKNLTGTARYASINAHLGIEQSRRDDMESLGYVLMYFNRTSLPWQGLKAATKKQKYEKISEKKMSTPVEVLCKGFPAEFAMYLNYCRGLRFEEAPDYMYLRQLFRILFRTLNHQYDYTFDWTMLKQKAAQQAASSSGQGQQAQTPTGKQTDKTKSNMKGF
T1 sequence (Q96SW2 whole entry): as the sequence (Q96SW2 whole entry) above
T1 sequence (Q16531 whole entry partner): as the sequence (Q16531 whole entry partner) above
T7 sequence (Q9UKT9 whole entry): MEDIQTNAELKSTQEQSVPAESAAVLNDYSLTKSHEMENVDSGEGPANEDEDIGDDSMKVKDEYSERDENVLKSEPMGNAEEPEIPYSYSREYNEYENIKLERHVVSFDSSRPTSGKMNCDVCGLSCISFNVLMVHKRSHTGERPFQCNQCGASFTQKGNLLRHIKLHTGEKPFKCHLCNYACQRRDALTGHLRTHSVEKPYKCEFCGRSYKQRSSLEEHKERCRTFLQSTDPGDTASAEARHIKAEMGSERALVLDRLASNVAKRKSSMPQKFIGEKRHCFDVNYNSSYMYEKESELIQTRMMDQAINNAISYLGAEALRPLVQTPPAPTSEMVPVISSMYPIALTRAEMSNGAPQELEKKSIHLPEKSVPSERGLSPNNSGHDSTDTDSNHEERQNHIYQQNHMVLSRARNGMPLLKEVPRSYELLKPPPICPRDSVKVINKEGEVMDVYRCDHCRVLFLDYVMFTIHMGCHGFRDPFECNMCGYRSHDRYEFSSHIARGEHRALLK
T7 sequence (Q96SW2 whole entry): as the sequence (Q96SW2 whole entry) above
T7 sequence (Q16531 whole entry partner): as the sequence (Q16531 whole entry partner) above
T3 sequence (Q9UKS7 whole entry): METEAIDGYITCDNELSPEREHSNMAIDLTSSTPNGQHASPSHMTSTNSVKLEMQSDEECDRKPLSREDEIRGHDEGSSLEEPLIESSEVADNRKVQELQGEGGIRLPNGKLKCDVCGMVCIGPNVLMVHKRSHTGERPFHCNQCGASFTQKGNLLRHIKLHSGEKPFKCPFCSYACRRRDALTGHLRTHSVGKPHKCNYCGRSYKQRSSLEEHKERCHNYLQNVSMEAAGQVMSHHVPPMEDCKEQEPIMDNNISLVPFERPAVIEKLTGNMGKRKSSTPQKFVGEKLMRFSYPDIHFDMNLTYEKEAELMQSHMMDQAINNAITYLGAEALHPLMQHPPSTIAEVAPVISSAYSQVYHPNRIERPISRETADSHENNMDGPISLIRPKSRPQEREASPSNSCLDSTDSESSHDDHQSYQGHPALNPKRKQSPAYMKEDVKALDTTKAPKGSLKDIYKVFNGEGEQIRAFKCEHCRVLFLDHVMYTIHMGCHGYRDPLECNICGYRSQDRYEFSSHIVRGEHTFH
T3 sequence (Q96SW2 whole entry): as the sequence (Q96SW2 whole entry) above
T3 sequence (Q16531 whole entry partner): as the sequence (Q16531 whole entry partner) above

`O=C1CCC(N2Cc3cc(CN4CCC(c5cccc(Cl)c5Cl)CC4)ccc3C2=O)C(=O)N1` (stereo not shown) [GT-04551, 3-(5-((4-(2,3-dichlorophenyl)piperidin-1-yl)methyl)-1-oxoisoindolin-2-yl)piperidine-2,6-dione]: the “CK1a substrate protein remaining %” value on CK1α was “A (0% ≤ substrate protein remaining % ≤ 80%)”. Besides, at GSPT1, the “GSPT1 substrate protein remaining %” value is given as “A (0% ≤ substrate protein remaining % ≤ 80%)”. Besides, the IC50 was 5 to 10 nM in the experiment with NCI-H1975; 1 to 5 nM in the experiment on CAL-62; 500 to 1000 nM in experiment [1]; 1 to 5 nM with MM.1R; < 1 nM in the experiment on Jurkat; 1 to 5 nM in [2]. In addition, the IC50 in experiment [3] was 10 to 50 nM. Moreover, the “IKZF2 substrate protein remaining %” value at IKZF2 is given as “A (0% ≤ substrate protein remaining % ≤ 80%)”. Also, on WEE1, the “Weel substrate protein remaining %” value is reported as “A (0% ≤ substrate protein remaining % ≤ 80%)”. Further, at IKZF1, the “IKZF 1 substrate protein remaining %” value was “A (0% ≤ substrate protein remaining % ≤ 80%)”. For the same compound, on IKZF3, the “IKZF3 substrate protein remaining %” value is “A (0% ≤ substrate protein remaining % ≤ 80%)”.
Consider `O=C1CCC(N2Cc3cc(CN4CCC(c5cccc(F)c5F)CC4)ccc3C2=O)C(=O)N1` (stereo not shown) [GT-04552, 3-(5-((4-(2,3-difluorophenyl)piperidin-1-yl)methyl)-1-oxoisoindolin-2-yl)piperidine-2,6-dione], for which the “CK1a substrate protein remaining %” value at CK1α is “A (0% ≤ substrate protein remaining % ≤ 80%)”. Further, the “GSPT1 substrate protein remaining %” value at GSPT1 was “A (0% ≤ substrate protein remaining % ≤ 80%)”. The IC50 in the experiment with NCI-H1975 lay within 10 to 50 nM; in the experiment with CAL-62, 5 to 10 nM; in [1], 1000 to 1500 nM; in the experiment with MM.1R it was 5 to 10 nM; with Jurkat it was 1 to 5 nM; in experiment [2] it was 1 to 5 nM. Also, the IC50 in experiment [3] was 50 to 100 nM. For the same compound, the “IKZF2 substrate protein remaining %” value at IKZF2 is on record as “A (0% ≤ substrate protein remaining % ≤ 80%)”. The “Weel substrate protein remaining %” value at WEE1 is “A (0% ≤ substrate protein remaining % ≤ 80%)”. In addition, the “IKZF 1 substrate protein remaining %” value on IKZF1 is listed as “A (0% ≤ substrate protein remaining % ≤ 80%)”. For the same compound, the “IKZF3 substrate protein remaining %” value on IKZF3 is on record as “A (0% ≤ substrate protein remaining % ≤ 80%)”.
Regarding `O=C1CCC(N2Cc3cc(CN4CCC(c5cccc(F)c5Cl)CC4)ccc3C2=O)C(=O)N1` (stereo not shown) [GT-04553, 3-(5-((4-(2-chloro-3-fluorophenyl)piperidin-1-yl)methyl)-1-oxoisoindolin-2-yl)piperidine-2,6-dione], at CK1α, the “CK1a substrate protein remaining %” value was “A (0% ≤ substrate protein remaining % ≤ 80%)”. Further, the “GSPT1 substrate protein remaining %” value on GSPT1 is reported as “A (0% ≤ substrate protein remaining % ≤ 80%)”. The IC50 with NCI-H1975 lay within 10 to 50 nM; with CAL-62, 1 to 5 nM; in experiment [1], 1000 to 1500 nM; in the experiment with MM.1R, 1 to 5 nM; with Jurkat, 1 to 5 nM; in experiment [2], 1 to 5 nM. For the same compound, the IC50 in [3] was 10 to 50 nM. In addition, the “IKZF2 substrate protein remaining %” value at IKZF2 is listed as “A (0% ≤ substrate protein remaining % ≤ 80%)”. In addition, the “Weel substrate protein remaining %” value on WEE1 is reported as “A (0% ≤ substrate protein remaining % ≤ 80%)”. In addition, the “IKZF 1 substrate protein remaining %” value on IKZF1 is “A (0% ≤ substrate protein remaining % ≤ 80%)”. Also, at IKZF3, the “IKZF3 substrate protein remaining %” value is “A (0% ≤ substrate protein remaining % ≤ 80%)”.
As for `O=C1CCC(N2Cc3cc(CN4CC=C(c5cccc(F)c5Cl)CC4)ccc3C2=O)C(=O)N1` (stereo not shown) [GT-04554, 3-(5-((4-(2-chloro-3-fluorophenyl)-3,6-dihydropyridin-1(2H)-yl)methyl)-1-oxoisoindolin-2-yl)piperidine-2,6-dione], at CK1α, the “CK1a substrate protein remaining %” value was “A (0% ≤ substrate protein remaining % ≤ 80%)”. Moreover, on GSPT1, the “GSPT1 substrate protein remaining %” value is reported as “A (0% ≤ substrate protein remaining % ≤ 80%)”. Moreover, the IC50 with NCI-H1975 is 1 to 5 nM; with CAL-62, < 1 nM; in experiment [1], 500 to 1000 nM; with MM.1R it was < 1 nM; in the experiment on Jurkat it was < 1 nM; in [2] it was < 1 nM. For the same compound, the IC50 in experiment [3] is 1 to 5 nM. The “IKZF2 substrate protein remaining %” value at IKZF2 is listed as “A (0% ≤ substrate protein remaining % ≤ 80%)”. The “Weel substrate protein remaining %” value at WEE1 is recorded as “A (0% ≤ substrate protein remaining % ≤ 80%)”. In addition, the “IKZF 1 substrate protein remaining %” value on IKZF1 is “A (0% ≤ substrate protein remaining % ≤ 80%)”. For the same compound, on IKZF3, the “IKZF3 substrate protein remaining %” value was “A (0% ≤ substrate protein remaining % ≤ 80%)”.
Regarding `O=C1CCC(N2Cc3cc(CN4CC=C(c5ccnc(F)c5F)CC4)ccc3C2=O)C(=O)N1` (stereo not shown) [GT-04555, 3-(5-((2',3'-difluoro-3,6-dihydro-[4,4'-bipyridin]-1(2H)-yl)methyl)-1-oxoisoindolin-2-yl)piperidine-2,6-dione], the “CK1a substrate protein remaining %” value at CK1α was “A (0% ≤ substrate protein remaining % ≤ 80%)”. Moreover, at GSPT1, the “GSPT1 substrate protein remaining %” value is “A (0% ≤ substrate protein remaining % ≤ 80%)”. Moreover, the IC50 was 100 to 500 nM with NCI-H1975; 10 to 50 nM with CAL-62; 500 to 1000 nM in experiment [1]; 5 to 10 nM with MM.1R; 5 to 10 nM in the experiment on Jurkat; 10 to 50 nM in experiment [2]. The IC50 in [3] lay within 500 to 1000 nM. Also, on IKZF2, the “IKZF2 substrate protein remaining %” value is reported as “A (0% ≤ substrate protein remaining % ≤ 80%)”. Further, on WEE1, the “Weel substrate protein remaining %” value is on record as “A (0% ≤ substrate protein remaining % ≤ 80%)”. In addition, the “IKZF 1 substrate protein remaining %” value on IKZF1 was “A (0% ≤ substrate protein remaining % ≤ 80%)”. Further, the “IKZF3 substrate protein remaining %” value at IKZF3 is given as “A (0% ≤ substrate protein remaining % ≤ 80%)”.
As for `O=C1CCC(N2Cc3cc(CN4CC=C(c5cncc(Cl)c5Cl)CC4)ccc3C2=O)C(=O)N1` (stereo not shown) [GT-04558, 3-(5-((4,5-dichloro-3',6'-dihydro-[3,4'-bipyridin]-1'(2'H)-yl)methyl)-1-oxoisoindolin-2-yl)piperidine-2,6-dione], the “CK1a substrate protein remaining %” value at CK1α was “A (0% ≤ substrate protein remaining % ≤ 80%)”. Further, on GSPT1, the “GSPT1 substrate protein remaining %” value is given as “A (0% ≤ substrate protein remaining % ≤ 80%)”. Also, the IC50 with NCI-H1975 is 5 to 10 nM; with CAL-62, 1 to 5 nM; in experiment [1], < 500 nM; in the experiment on MM.1R, < 1 nM; in the experiment with Jurkat, < 1 nM; in experiment [2] it was 1 to 5 nM. Also, in experiment [3], the IC50 was in the range of 5 to 10 nM. Besides, the “IKZF2 substrate protein remaining %” value on IKZF2 is reported as “A (0% ≤ substrate protein remaining % ≤ 80%)”. For the same compound, on WEE1, the “Weel substrate protein remaining %” value is “A (0% ≤ substrate protein remaining % ≤ 80%)”. The “IKZF 1 substrate protein remaining %” value on IKZF1 is “A (0% ≤ substrate protein remaining % ≤ 80%)”. The “IKZF3 substrate protein remaining %” value on IKZF3 is “A (0% ≤ substrate protein remaining % ≤ 80%)”.
Consider `O=C1CCC(N2Cc3cc(CN4CC=C(c5ccnc(Cl)c5Cl)CC4)ccc3C2=O)C(=O)N1` (stereo not shown) [GT-04559, 3-(5-((2',3'-dichloro-3,6-dihydro-[4,4'-bipyridin]-1(2H)-yl)methyl)-1-oxoisoindolin-2-yl)piperidine-2,6-dione], for which the “CK1a substrate protein remaining %” value at CK1α is reported as “A (0% ≤ substrate protein remaining % ≤ 80%)”. Further, at GSPT1, the “GSPT1 substrate protein remaining %” value is given as “A (0% ≤ substrate protein remaining % ≤ 80%)”. The IC50 in the experiment on NCI-H1975 is 10 to 50 nM; with CAL-62, 1 to 5 nM; in [1], < 500 nM; in the experiment on MM.1R, 1 to 5 nM; with Jurkat, 1 to 5 nM; in [2] it was 1 to 5 nM. In experiment [3], the IC50 was in the range of 10 to 50 nM. Also, on IKZF2, the “IKZF2 substrate protein remaining %” value is “A (0% ≤ substrate protein remaining % ≤ 80%)”. Also, the “Weel substrate protein remaining %” value on WEE1 was “A (0% ≤ substrate protein remaining % ≤ 80%)”. The “IKZF 1 substrate protein remaining %” value on IKZF1 was “A (0% ≤ substrate protein remaining % ≤ 80%)”. Moreover, the “IKZF3 substrate protein remaining %” value at IKZF3 is on record as “A (0% ≤ substrate protein remaining % ≤ 80%)”.
